# Test results as given in the supplement of paper PMC10627819.
# Key:
# Assay in all cases: Bliss interaction score (quartile over a dose matrix) (fitness difference); higher = more antagonism (negative = synergy)
# S. pneumoniae D39V = system: S. pneumoniae D39V
# Method in brief: (§1)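 Fitness here means normalised growth, inferred for single drugs from the combination data. Growth was OD595 at entry into stationary phase, divided by the plate's robust no-drug mean and capped at 1. The Bliss score is observed minus expected fitness, with the expectation being the product, and its quartiles span technical, biological and donor/recipient replicates.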
# S. aureus Newman = system: S. aureus Newman
# Method in brief: as §1
# S. aureus DSM 20231 = system: S. aureus DSM 20231
# Method in brief: as §1
# B. subtilis 168 = system: B. subtilis 168
# Method in brief: as §1
# 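Also: first quartile when negative (synergy) and third quartile when positive (antagonism).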
SMILES,Bliss interaction score (S. pneumoniae D39V),Bliss interaction score (S. aureus Newman),Bliss interaction score (S. aureus DSM 20231),Bliss interaction score (B. subtilis 168),Bliss interaction score (S. pneumoniae D39V; main component drawn),Bliss interaction score (S. aureus Newman; main component drawn),Bliss interaction score (S. aureus DSM 20231; main component drawn),Bliss interaction score (B. subtilis 168; main component drawn)
CC(=O)O[C@H]1C[C@@]2(C)[C@@H](C[C@@H](O)[C@H]3[C@@]4(C)CC[C@@H](O)[C@@H](C)[C@@H]4CC[C@@]32C)/C1=C(\CCC=C(C)C)C(=O)O [Fusidic acid] + CC1=C\[C@@H](O)CC(=O)Cc2nc(co2)C(=O)N2CCC=C2C(=O)O[C@H](C(C)C)[C@H](C)/C=C/C(=O)NC\C=C\1 [Virginiamycin M1],0.0996,-0.044,0.0345,0.0743,,,,
CC(=O)O[C@H]1C[C@@]2(C)[C@@H](C[C@@H](O)[C@H]3[C@@]4(C)CC[C@@H](O)[C@@H](C)[C@@H]4CC[C@@]32C)/C1=C(\CCC=C(C)C)C(=O)O [Fusidic acid] + CC(=O)NC[C@H]1CN(c2ccc(N3CCOCC3)c(F)c2)C(=O)O1 [Linezolid],-0.1,-0.0198,-0.0285,-0.141,,,,
CC(=O)O[C@H]1C[C@@]2(C)[C@@H](C[C@@H](O)[C@H]3[C@@]4(C)CC[C@@H](O)[C@@H](C)[C@@H]4CC[C@@]32C)/C1=C(\CCC=C(C)C)C(=O)O [Fusidic acid] + CC(C1CCC(C(O1)OC2C(CC(C(C2O)OC3C(C(C(CO3)(C)O)NC)O)N)N)N)NC [Gentamicin],,,,,-0.0713,0.0572,0.034,-0.0712
CC(=O)O[C@H]1C[C@@]2(C)[C@@H](C[C@@H](O)[C@H]3[C@@]4(C)CC[C@@H](O)[C@@H](C)[C@@H]4CC[C@@]32C)/C1=C(\CCC=C(C)C)C(=O)O [Fusidic acid] + CCC(C)C1C(=O)NC(=C)C(=O)NC(C(=O)NC(CSCC(C(=O)N1)NC(=O)/C(=C/C)/NC(=O)C(C(C)CC)N)C(=O)NC2C(SCC(NC(=O)CNC(=O)C3CCCN3C2=O)C(=O)NC(CCCCN)C(=O)NC4C(SCC(NC(=O)CNC(=O)C(NC(=O)C(NC(=O)C(NC(=O)CNC4=O)C)CC(C)C)CCSC)C(=O)NC(CC(=O)N)C(=O)NC(CCSC)C(=O)NC(CCCCN)C(=O)NC5C(SCC6C(=O)NC(C(=O)NC(CSC(C(C(=O)N6)NC(=O)C(NC5=O)C)C)C(=O)NC(CO)C(=O)NC(C(C)CC)C(=O)NC(CC7=CN=CN7)C(=O)NC(C(C)C)C(=O)NC(=C)C(=O)NC(CCCCN)C(=O)O)CC8=CN=CN8)C)C)C)CC(C)C [Nisin],,,,,-0.0281,-0.0346,0.0299,-0.0332
CC(=O)O[C@H]1C[C@@]2(C)[C@@H](C[C@@H](O)[C@H]3[C@@]4(C)CC[C@@H](O)[C@@H](C)[C@@H]4CC[C@@]32C)/C1=C(\CCC=C(C)C)C(=O)O [Fusidic acid] + CCCCCCCCCC(=O)N[C@@H]1[C@H]([C@@H]([C@H](O[C@H]1OC2=C3C=C4C=C2OC5=C(C=C(C=C5)[C@H]([C@H]6C(=O)N[C@@H](C7=C(C(=CC(=C7)O)OC8[C@H]([C@H]([C@@H]([C@H](O8)CO)O)O)O)C9=C(C=CC(=C9)[C@H](C(=O)N6)NC(=O)[C@@H]4NC(=O)[C@@H]1C2=CC(=CC(=C2)OC2=C(C=CC(=C2)[C@H](C(=O)N[C@H](CC2=CC(=C(O3)C=C2)Cl)C(=O)N1)N)O)O)O)C(=O)O)O[C@H]1[C@@H]([C@H]([C@@H]([C@H](O1)CO)O)O)NC(=O)C)Cl)CO)O)O [Teicoplanin],,,,,0.0761,-0.0424,0.0374,-0.0459
CC(=O)O[C@H]1C[C@@]2(C)[C@@H](C[C@@H](O)[C@H]3[C@@]4(C)CC[C@@H](O)[C@@H](C)[C@@H]4CC[C@@]32C)/C1=C(\CCC=C(C)C)C(=O)O [Fusidic acid] + CCC[C@@H]1C[C@@H](C(=O)N[C@@H]([C@H]2O[C@H](SC)[C@H](O)[C@@H](O)[C@H]2O)[C@@H](C)O)N(C)C1 [Lincomycin],-0.0651,-0.0595,-0.0572,0.0915,,,,
CC(=O)O[C@H]1C[C@@]2(C)[C@@H](C[C@@H](O)[C@H]3[C@@]4(C)CC[C@@H](O)[C@@H](C)[C@@H]4CC[C@@]32C)/C1=C(\CCC=C(C)C)C(=O)O [Fusidic acid] + CCN(CC)CCOC(=O)c1ccc(N)cc1 [Procaine],0.0981,-0.0177,-0.0218,-0.0381,,,,
CC(=O)O[C@H]1C[C@@]2(C)[C@@H](C[C@@H](O)[C@H]3[C@@]4(C)CC[C@@H](O)[C@@H](C)[C@@H]4CC[C@@]32C)/C1=C(\CCC=C(C)C)C(=O)O [Fusidic acid] + CC[C@H]1OC(=O)[C@H](C)C(=O)[C@H](C)[C@@H](O[C@@H]2O[C@H](C)C[C@H](N(C)C)[C@H]2O)[C@](C)(OC)C[C@@H](C)C(=O)[C@H](C)[C@H]2N(CCCCn3cnc(-c4cccnc4)c3)C(=O)O[C@]12C [Telithromycin],-0.0347,0.0161,-0.0334,-0.0755,,,,
CC(=O)O[C@H]1C[C@@]2(C)[C@@H](C[C@@H](O)[C@H]3[C@@]4(C)CC[C@@H](O)[C@@H](C)[C@@H]4CC[C@@]32C)/C1=C(\CCC=C(C)C)C(=O)O [Fusidic acid] + CN1C2=CC=CC=C2N=C3C1=CC=CC3=O [Pyocyanin],0.0648,0.0295,0.0421,0.0385,,,,
CC(=O)O[C@H]1C[C@@]2(C)[C@@H](C[C@@H](O)[C@H]3[C@@]4(C)CC[C@@H](O)[C@@H](C)[C@@H]4CC[C@@]32C)/C1=C(\CCC=C(C)C)C(=O)O [Fusidic acid] + CN(C)C(=O)C(CCN1CCC(O)(c2ccc(Cl)cc2)CC1)(c1ccccc1)c1ccccc1 [Loperamide],0.128,0.0269,0.0226,-0.0873,,,,
CC(=O)O[C@H]1C[C@@]2(C)[C@@H](C[C@@H](O)[C@H]3[C@@]4(C)CC[C@@H](O)[C@@H](C)[C@@H]4CC[C@@]32C)/C1=C(\CCC=C(C)C)C(=O)O [Fusidic acid] + CN(C)c1cc(NC(=O)CNC(C)(C)C)c(O)c2c1C[C@H]1C[C@H]3[C@H](N(C)C)C(O)=C(C(N)=O)C(=O)[C@@]3(O)C(O)=C1C2=O [Tigecycline],-0.0713,0.0375,-0.0504,0.074,,,,
CC(=O)O[C@H]1C[C@@]2(C)[C@@H](C[C@@H](O)[C@H]3[C@@]4(C)CC[C@@H](O)[C@@H](C)[C@@H]4CC[C@@]32C)/C1=C(\CCC=C(C)C)C(=O)O [Fusidic acid] + CN(N=O)C(=O)N[C@@H](C=O)[C@@H](O)[C@H](O)[C@H](O)CO [Streptozotocin],0.0486,-0.0145,-0.0166,0.0745,,,,
CC(=O)O[C@H]1C[C@@]2(C)[C@@H](C[C@@H](O)[C@H]3[C@@]4(C)CC[C@@H](O)[C@@H](C)[C@@H]4CC[C@@]32C)/C1=C(\CCC=C(C)C)C(=O)O [Fusidic acid] + CN[C@@H]1[C@H](O)[C@H](NC)[C@H]2O[C@@]3(O)C(=O)C[C@@H](C)O[C@H]3O[C@@H]2[C@H]1O [Spectinomycin],-0.0789,-0.0448,0.027,0.0642,,,,
CC(=O)O[C@H]1C[C@@]2(C)[C@@H](C[C@@H](O)[C@H]3[C@@]4(C)CC[C@@H](O)[C@@H](C)[C@@H]4CC[C@@]32C)/C1=C(\CCC=C(C)C)C(=O)O [Fusidic acid] + CN[C@@H]1[C@H](O[C@H]2[C@H](O[C@H]3[C@H](O)[C@@H](O)[C@H](N=C(N)N)[C@@H](O)[C@@H]3N=C(N)N)O[C@@H](C)[C@]2(O)C=O)O[C@@H](CO)[C@H](O)[C@H]1O [Streptomycin],-0.0901,-0.0834,0.034,0.0692,,,,
CC(=O)O[C@H]1C[C@@]2(C)[C@@H](C[C@@H](O)[C@H]3[C@@]4(C)CC[C@@H](O)[C@@H](C)[C@@H]4CC[C@@]32C)/C1=C(\CCC=C(C)C)C(=O)O [Fusidic acid] + CN[C@H](CC(C)C)C(=O)N[C@H]1C(=O)N[C@@H](CC(N)=O)C(=O)N[C@H]2C(=O)N[C@H]3C(=O)N[C@H](C(=O)N[C@H](C(=O)O)c4cc(O)cc(O)c4-c4cc3ccc4O)[C@H](O)c3ccc(c(Cl)c3)Oc3cc2cc(c3O[C@@H]2O[C@H](CO)[C@@H](O)[C@H](O)[C@H]2O[C@H]2C[C@](C)(N)[C@H](O)[C@H](C)O2)Oc2ccc(cc2Cl)[C@H]1O [Vancomycin],0.0729,-0.0305,0.0205,-0.0397,,,,
CC(=O)O[C@H]1C[C@@]2(C)[C@@H](C[C@@H](O)[C@H]3[C@@]4(C)CC[C@@H](O)[C@@H](C)[C@@H]4CC[C@@]32C)/C1=C(\CCC=C(C)C)C(=O)O [Fusidic acid] + CN[C@H](CC(C)C)C(=O)N[C@H]1C(=O)N[C@@H](CC(N)=O)C(=O)N[C@H]2C(=O)N[C@H]3C(=O)N[C@H](C(=O)N[C@H](C(=O)O)c4cc(O)cc(O)c4-c4cc3ccc4O)[C@H](O[C@H]3C[C@](C)(N)[C@@H](O)[C@H](C)O3)c3ccc(c(Cl)c3)Oc3cc2cc(c3O[C@@H]2O[C@H](CO)[C@@H](O)[C@H](O)[C@H]2O[C@H]2C[C@](C)(NCc3ccc(-c4ccc(Cl)cc4)cc3)[C@@H](O)[C@H](C)O2)Oc2ccc(cc2Cl)[C@H]1O [Oritavancin],0.0765,0.0249,0.0159,0.0477,,,,
CC(=O)O[C@H]1C[C@@]2(C)[C@@H](C[C@@H](O)[C@H]3[C@@]4(C)CC[C@@H](O)[C@@H](C)[C@@H]4CC[C@@]32C)/C1=C(\CCC=C(C)C)C(=O)O [Fusidic acid] + CO[C@@H]1[C@@H](OC(N)=O)[C@@H](O)[C@H](Oc2ccc3c(O)c(NC(=O)c4ccc(O)c(CC=C(C)C)c4)c(=O)oc3c2C)OC1(C)C [Novobiocin],-0.153,0.0521,0.0249,0.0723,,,,
CC(=O)O[C@H]1C[C@@]2(C)[C@@H](C[C@@H](O)[C@H]3[C@@]4(C)CC[C@@H](O)[C@@H](C)[C@@H]4CC[C@@]32C)/C1=C(\CCC=C(C)C)C(=O)O [Fusidic acid] + CO[C@@]12[C@H](COC(N)=O)C3=C(C(=O)C(C)=C(N)C3=O)N1C[C@@H]1N[C@@H]12 [MitomycinC],-0.149,0.0159,0.0263,0.0298,,,,
CC(=O)O[C@H]1C[C@@]2(C)[C@@H](C[C@@H](O)[C@H]3[C@@]4(C)CC[C@@H](O)[C@@H](C)[C@@H]4CC[C@@]32C)/C1=C(\CCC=C(C)C)C(=O)O [Fusidic acid] + CO[C@H]1/C=C/O[C@@]2(C)Oc3c(C)c(O)c4c(O)c(c(/C=N/N5CCN(C)CC5)c(O)c4c3C2=O)NC(=O)/C(C)=C\C=C\[C@H](C)[C@H](O)[C@@H](C)[C@@H](O)[C@@H](C)[C@H](OC(C)=O)[C@@H]1C [Rifampicin],0.0781,0.0314,0.0497,0.0723,,,,
CC(=O)O[C@H]1C[C@@]2(C)[C@@H](C[C@@H](O)[C@H]3[C@@]4(C)CC[C@@H](O)[C@@H](C)[C@@H]4CC[C@@]32C)/C1=C(\CCC=C(C)C)C(=O)O [Fusidic acid] + COc1c(N2C[C@@H]3CCCN[C@@H]3C2)c(F)cc2c(=O)c(C(=O)O)cn(C3CC3)c12 [Moxifloxacin],0.048,0.0453,0.0361,0.0398,,,,
CC(=O)O[C@H]1C[C@@]2(C)[C@@H](C[C@@H](O)[C@H]3[C@@]4(C)CC[C@@H](O)[C@@H](C)[C@@H]4CC[C@@]32C)/C1=C(\CCC=C(C)C)C(=O)O [Fusidic acid] + COc1cc(Cc2cnc(N)nc2N)cc(OC)c1OC [Trimethoprim],-0.0871,0.0427,0.0265,0.112,,,,
CC(=O)O[C@H]1C[C@@]2(C)[C@@H](C[C@@H](O)[C@H]3[C@@]4(C)CC[C@@H](O)[C@@H](C)[C@@H]4CC[C@@]32C)/C1=C(\CCC=C(C)C)C(=O)O [Fusidic acid] + COc1ccc(C[C@H](N)C(=O)N[C@H]2[C@@H](O)[C@H](n3cnc4c(N(C)C)ncnc43)O[C@@H]2CO)cc1 [Puromycin],-0.213,-0.0454,0.0336,-0.045,,,,
